Patent publication US20060009478A1, “Methods for the treatment of back pain” (priority 2003, published 2006)

Assays:
[1] = test system: patients with moderate to severe chronic low back pain; experiment: Global assessment of study medication, low back pain study; type: in vivo, human; details: LOCF, ITT
Method: Global assessment of study medication was also assessed at clinic visits during the titration and fixed-dose periods. The patient was prompted with the question, “How would you rate the study medication you received during the past week/past two weeks? (Please consider the quality of your pain relief, your side effects, your activity level, your mood and sense of well-being, etc. in this evaluation.)” Responses were selected from poor, fair, good, very good, and excellent.
Global assessment and quality of analgesia ratings were summarized descriptively by treatment group for both the titration and fixed-dose periods. Treatments were compared at each visit in the fixed-dose period, globally and in pairwise fashion, using the Cochran-Mantel-Haenszel row mean scores (CMH-RMS) test, using equally spaced scores.

[2] = test system: patients with moderate to severe chronic low back pain; experiment: Dose analysis (average titration dose, fixed dose, study drug dose of opioid agonist), low back pain study
From the text: Dose and adverse events were to be evaluated at each visit. The dose was to be increased to the next dose level if the average daily bedtime PI during the last 3 days of each preceding week was >2 and no unacceptable adverse events were reported. The dose was to be fixed, if the average daily bedtime PI during the last 3 days of each preceding week was ≦2 with no unacceptable adverse events, and the patient was to enter the 12-week fixed-dose period of the study. For these patients, the last week of the titration period was to serve as the first week of the fixed dose period. Therefore, only an additional 11 weeks of treatment were carried out. The same procedure was to occur if a patient had reached 80 mg at Week 6 of the titration period with no unacceptable adverse events.
During the titration period (Weeks 2-6, Day 1), patients returned to the study center at weekly intervals (±1 day) for up to six weeks for the following assessments: (1) opioid toxicity assessment; (2) review take-home diary (including overall daily bedtime PI and opioid-related adverse events); (3) record new/changed adverse events and concomitant medications; (4) collect study medication from previous week and account for used/unused supplies; (5) vital signs; (6) quality of analgesia; (7) global assessment of study medication; (8) dispense take-home daily diary; and (8) dispense study medication (one blister card). Dose and adverse events were evaluated at each visit. The dose was to be increased to the next dose level if the average daily bedtime PI during the last 3 days of each preceding week was >2 and no unacceptable adverse events were reported. The dose was to be fixed, if the average daily bedtime PI during the last 3 days of each preceding week was ≦2 with no unacceptable adverse events, and the patient entered the fixed-dose period of the study. For these patients, the last week of the titration period served as the first week of the fixed dose period. Therefore, only an additional 11 weeks of treatment were required. The same procedure occurred if a patient had reached 80 mg at Week 6 of the titration period with no unacceptable adverse events. If any unacceptable study drug related adverse events were encountered, the dose was to be reduced by one level. No more than one dose reduction can occur. The patient was to remain at this reduced dose for a total of 12 weeks. For patients experiencing unacceptable adverse events or intolerable pain in between scheduled clinic visits, the dose level was to be decreased or increased during the treatment week with the Sponsor's approval.

[3] = mg of opioid agonist, ITT population

For `COc1ccc2c3c1O[C@H]1C(=O)CC[C@@]4(O)[C@@H](C2)N(C)CC[C@]314` [OXY QID, oxycodone], the “Global assessment EXCELLENT (4), number of patients” value ([1]; fixed dose period week 1) was 14, the “Global assessment EXCELLENT (4), percent of patients” value ([1]; fixed dose period week 1) was 6.8% and the “Global assessment FAIR (1), number of patients” value ([1]; fixed dose period week 1) was 23. For the same compound, the “Global assessment FAIR (1), percent of patients” value ([1]; fixed dose period week 1) was 11.2%, the “Global assessment GOOD (2), number of patients” value ([1]; fixed dose period week 1) was 72 and the “Global assessment POOR (0), number of patients” value ([1]; fixed dose period week 1) was 33. For the same compound, the “Global assessment POOR (0), percent of patients” value ([1]; fixed dose period week 1) was 16.0%, the “Global assessment VERY GOOD (3), number of patients” value ([1]; fixed dose period week 1) was 63 and the “Global assessment VERY GOOD (3), percent of patients” value ([1]; fixed dose period week 1) was 30.6%. For the same compound, the “Global assessment EXCELLENT (4), number of patients” value ([1]; fixed dose period week 2) was 21, the “Global assessment EXCELLENT (4), percent of patients” value ([1]; fixed dose period week 2) was 10.2% and the “Global assessment FAIR (1), number of patients” value ([1]; fixed dose period week 2) was 22. For the same compound, the “Global assessment FAIR (1), percent of patients” value ([1]; fixed dose period week 2) was 10.7%, the “Global assessment GOOD (2), number of patients” value ([1]; fixed dose period week 2) was 79 and the “Global assessment POOR (0), number of patients” value ([1]; fixed dose period week 2) was 33. For the same compound, the “Global assessment POOR (0), percent of patients” value ([1]; fixed dose period week 2) was 16.0%, the “Global assessment VERY GOOD (3), number of patients” value ([1]; fixed dose period week 2) was 50 and the “Global assessment EXCELLENT (4), number of patients” value ([1]; fixed dose period week 4) was 20. For the same compound, the “Global assessment EXCELLENT (4), percent of patients” value ([1]; fixed dose period week 4) was 9.7%, the “Global assessment FAIR (1), number of patients” value ([1]; fixed dose period week 4) was 26 and the “Global assessment FAIR (1), percent of patients” value ([1]; fixed dose period week 4) was 12.6%. For the same compound, the “Global assessment GOOD (2), number of patients” value ([1]; fixed dose period week 4) was 69, the “Global assessment POOR (0), number of patients” value ([1]; fixed dose period week 4) was 37 and the “Global assessment POOR (0), percent of patients” value ([1]; fixed dose period week 4) was 18.0%. For the same compound, the “Global assessment VERY GOOD (3), number of patients” value ([1]; fixed dose period week 4) was 53, the “Global assessment EXCELLENT (4), number of patients” value ([1]; fixed dose period week 6) was 23 and the “Global assessment EXCELLENT (4), percent of patients” value ([1]; fixed dose period week 6) was 11.2%. The “Global assessment FAIR (1), number of patients” value ([1]; fixed dose period week 6) was 28, the “Global assessment FAIR (1), percent of patients” value ([1]; fixed dose period week 6) was 13.6% and the “Global assessment GOOD (2), number of patients” value ([1]; fixed dose period week 6) was 73. The “Global assessment POOR (0), number of patients” value ([1]; fixed dose period week 6) was 38, the “Global assessment POOR (0), percent of patients” value ([1]; fixed dose period week 6) was 18.4% and the “Global assessment VERY GOOD (3), number of patients” value ([1]; fixed dose period week 6) was 43. The “Global assessment VERY GOOD (3), percent of patients” value ([1]; fixed dose period week 6) was 20.9%, the “Global assessment EXCELLENT (4), number of patients” value ([1]; fixed dose period week 8) was 20 and the “Global assessment EXCELLENT (4), percent of patients” value ([1]; fixed dose period week 8) was 9.7%. For the same compound, the “Global assessment FAIR (1), number of patients” value ([1]; fixed dose period week 8) was 34, the “Global assessment FAIR (1), percent of patients” value ([1]; fixed dose period week 8) was 16.5% and the “Global assessment GOOD (2), number of patients” value ([1]; fixed dose period week 8) was 74. The “Global assessment POOR (0), number of patients” value ([1]; fixed dose period week 8) was 36, the “Global assessment POOR (0), percent of patients” value ([1]; fixed dose period week 8) was 17.5% and the “Global assessment VERY GOOD (3), number of patients” value ([1]; fixed dose period week 8) was 41. The “Global assessment VERY GOOD (3), percent of patients” value ([1]; fixed dose period week 8) was 19.9%, the “Global assessment EXCELLENT (4), number of patients” value ([1]; fixed dose period week 10) was 23 and the “Global assessment EXCELLENT (4), percent of patients” value ([1]; fixed dose period week 10) was 11.2%. The “Global assessment FAIR (1), number of patients” value ([1]; fixed dose period week 10) was 34, the “Global assessment FAIR (1), percent of patients” value ([1]; fixed dose period week 10) was 16.5% and the “Global assessment GOOD (2), number of patients” value ([1]; fixed dose period week 10) was 65. The “Global assessment GOOD (2), percent of patients” value ([1]; fixed dose period week 10) was 31.6%, the “Global assessment POOR (0), number of patients” value ([1]; fixed dose period week 10) was 38 and the “Global assessment POOR (0), percent of patients” value ([1]; fixed dose period week 10) was 18.4%. For the same compound, the “Global assessment VERY GOOD (3), number of patients” value ([1]; fixed dose period week 10) was 45, the “Global assessment VERY GOOD (3), percent of patients” value ([1]; fixed dose period week 10) was 21.8% and the “Global assessment EXCELLENT (4), number of patients” value ([1]; fixed dose period week 12) was 22. For the same compound, the “Global assessment EXCELLENT (4), percent of patients” value ([1]; fixed dose period week 12) was 10.7%, the “Global assessment FAIR (1), number of patients” value ([1]; fixed dose period week 12) was 33 and the “Global assessment FAIR (1), percent of patients” value ([1]; fixed dose period week 12) was 16.0%. For the same compound, the “Global assessment GOOD (2), number of patients” value ([1]; fixed dose period week 12) was 75, the “Global assessment POOR (0), number of patients” value ([1]; fixed dose period week 12) was 38 and the “Global assessment POOR (0), percent of patients” value ([1]; fixed dose period week 12) was 18.4%. The “Global assessment VERY GOOD (3), number of patients” value ([1]; fixed dose period week 12) was 37, the “Global assessment VERY GOOD (3), percent of patients” value ([1]; fixed dose period week 12) was 18.0% and the “Mean study drug dose of oxycodone” value ([2]; entire study period (titration and fixed-dose), ITT) was 39.0 mg. The “Mean fixed dose of oxycodone” value ([2]; fixed-dose period, ITT) was 57.2 mg, the “AVERAGE FIXED DOSE, MAXIMUM” value [2, 3] was 80.0 mg and the “AVERAGE FIXED DOSE, MEAN (SD)” value [2, 3] was 57.2 (23.35) MG. The “AVERAGE FIXED DOSE, MEDIAN” value [2, 3] was 60.0 mg, the “AVERAGE FIXED DOSE, MINIMUM” value [2, 3] was 10.0 mg and the “AVERAGE STUDY DRUG DOSE, MAXIMUM” value [2, 3] was 67.8 mg. The “AVERAGE STUDY DRUG DOSE, MEAN (SD)” value [2, 3] was 39.0 (19.87) MG, the “AVERAGE STUDY DRUG DOSE, MEDIAN” value [2, 3] was 35.6 mg and the “AVERAGE STUDY DRUG DOSE, MINIMUM” value [2, 3] was 10.0 mg. For the same compound, the “AVERAGE TITRATION DOSE, MAXIMUM” value [2, 3] was 42.3 mg, the “AVERAGE TITRATION DOSE, MEAN (SD)” value [2, 3] was 24.2 (8.22) MG and the “AVERAGE TITRATION DOSE, MEDIAN” value [2, 3] was 25.9 mg. The “AVERAGE TITRATION DOSE, MINIMUM” value [2, 3] was 0.0 mg, the “Opioid drug dose required to achieve comparable pain relief” value ([2]; per day, p<0.05) was “approximately 39 mg” and the “Mean titration dose of oxycodone” value ([2]; titration period, ITT) was 24.2 mg.
